In brackets after ≈: the same amount, converted by molar mass.

For the series the following is noted: buffer; pH 7.4; 200.0 µM.
As usually defined, the kinetic solubility is the concentration staying in solution when a stock, usually in DMSO, is diluted into the medium. For `CC(NC1CCN(Cc2ccccc2)CC1)c1ccc(F)cc1` (configuration not stated), the solubility (kinetic) is 42.3 µg/mL (≈ 135 µM).

In the case of `c1ccc(-c2nc(-c3cccnc3)cs2)cc1`, the kinetic solubility came out at 21.4 µg/mL (≈ 89.8 µM).

In turn, `O=C(Cc1ccc(Cl)cc1)NNC(=O)C1CC=CCC1C(=O)O` (configuration not stated) returned a kinetic solubility of over 50.5 µg/mL.

With `COC(=O)C(Cc1ccc(O)cc1)NC(=O)c1ccc2c(c1)OCCO2` (configuration not stated), the kinetic solubility is over 53.6 µg/mL. `Cc1cc2c(c(=O)o1)C(CCC1CCCCC1)C(C#N)=C(N)O2` (configuration not stated) displayed a kinetic solubility of 8 µg/mL (≈ 25.4 µM). Under `Cc1nc2ccccn2c1C(=O)CSc1cccc(Cl)c1` stands 3.9 µg/mL (≈ 12.3 µM). In the case of `CC(C)CC(N=Cc1c(O)c2ccccc2oc1=O)C(=O)O` (configuration not stated), the kinetic solubility was over 45.5 µg/mL.

On to `COc1ccc(OC)c(/C=C2\NC(=O)NC2=O)c1`, for which the kinetic solubility turned out to be 9.5 µg/mL (≈ 38.3 µM). Take `O=C(CN1C(=O)S/C(=C\c2ccc(C(=O)O)cc2)C1=O)Nc1ccccc1`: the solubility (kinetic) came to 32.2 µg/mL (≈ 84.2 µM). `O=C(NC1CCN(S(=O)(=O)c2ccc(F)cc2)CC1)c1ccco1` had a solubility (kinetic) of 17.5 µg/mL (≈ 49.7 µM). The compound `CCS(=O)(=O)Nc1cccc(-c2cn3c(n2)SCC3)c1` yielded a solubility (kinetic) of over 46.4 µg/mL. Under `Cc1ccc(C(=O)N(C)Cc2nc3ccccc3c(=O)[nH]2)cc1NC(=O)c1ccco1` stands over 62.5 µg/mL. The compound `O=C(NC1CCCCC1)Oc1cc2oc(=O)sc2cc1Br` registered a kinetic solubility of 10.2 µg/mL (≈ 27.4 µM). Turning to `CCN(CC)c1ccc(/C=N/O)cc1`, the kinetic solubility was over 28.8 µg/mL.

Compound `O=C(CNC(=O)c1ccccc1F)Nc1ccc2c(c1)CCC2` displayed a kinetic solubility of 2.9 µg/mL (≈ 9.28 µM). Next, `CCCn1cnc2cc(NC(=O)c3ccco3)ccc21`: over 40.4 µg/mL; `Cc1cccc(-n2c(C)c(-c3ccccc3)[nH]c2=S)c1`: 4.5 µg/mL (≈ 16 µM); `Clc1nnc(Cl)c2c1ncn2Cc1ccccc1`: over 41.9 µg/mL. Next, `Fc1cccc(Cl)c1CNc1ccc(N2CCCC2)cc1`: 0.7 µg/mL (≈ 2.3 µM); `COc1nc(C)ccc1-c1noc(-c2cccnc2)n1`: 14.6 µg/mL (≈ 54.4 µM).

Turning to `O=c1[nH]c(O)c(C=NC2CCCCC2)c(=O)[nH]1`, the kinetic solubility was over 35.6 µg/mL. Under `COc1ccc(C(=O)Nc2ccc(Nc3ccccc3)cc2)cc1Br` stands under 0.4 µg/mL. Next, `COC1=C(Nc2ccccc2OC)C(=O)c2ccccc2C1=O`: 17.2 µg/mL (≈ 55.6 µM).

For the compound `O=C(O)c1ccc(S(=O)(=O)N(Cc2ccccc2)Cc2ccccc2)cc1`, the kinetic solubility is 19.5 µg/mL (≈ 51.1 µM). Compound `CN(C)CC#CCn1c2ccccc2c2ccccc21.Cl` displayed a solubility (kinetic) of over 44.8 µg/mL. Next, `CC(C)c1ccc(N(CC(=O)N2CCOCC2)S(C)(=O)=O)cc1`: 32.9 µg/mL (≈ 96.6 µM); `C=CCNc1nc(C(=O)OCC(=O)c2ccc(F)cc2)cs1`: 11.2 µg/mL (≈ 35 µM); `O=C(c1ccc2ccccc2n1)N1CCN(S(=O)(=O)c2ccccc2)CC1`: over 57.2 µg/mL. Under `CC(C)N1CCN(Cc2ccncc2)CC1CCO` (configuration not stated) stands 24.3 µg/mL (≈ 92.3 µM); under `O=[N+]([O-])c1ccc(N2CCCCC2)cc1`, 19.9 µg/mL (≈ 96.5 µM); under `CCc1ccccc1NC(=O)CN(C)C(=O)COC(=O)c1cccnc1Cl`, over 58.5 µg/mL. As to `Cc1ccc(C(C)C)c(OCC(O)CNC2CCCC2)c1.Cl` (configuration not stated), the kinetic solubility was over 49.2 µg/mL. Next, `Cn1c(=O)n(C)c2cc(NC(=O)CSc3ccccc3)ccc21`: over 49.1 µg/mL; `Cc1ccc(N2CCCC2=O)cc1S(=O)(=O)N1CCOCC1`: over 48.7 µg/mL; `Nc1ccc(-c2ccc(N)c(C(=O)O)c2)cc1C(=O)O`: over 40.8 µg/mL.

`Cn1c(=O)c2c(nc3n2CC(O)CN3c2ccccc2)n(C)c1=O` (configuration not stated) showed a kinetic solubility of over 49.1 µg/mL.

Compound `CCOc1ccc(Cc2noc3c2C(=O)CC(C)(C)C3)cc1OCC` displayed a solubility (kinetic) of 46.4 µg/mL (≈ 135 µM). Under `CN(C)C(CNC(=O)c1cccs1)c1ccco1` (configuration not stated) stands over 39.7 µg/mL. For the compound `N/C(=N\OC(=O)c1cccc2ccccc12)c1ccncc1`, the solubility (kinetic) came out at 31.3 µg/mL (≈ 107 µM).

On to `CCOC(=O)C(=CNc1ccc(Cl)cn1)C(=O)OCC`, for which the kinetic solubility was 1.2 µg/mL (≈ 4.02 µM). Under `CCCCCCC(=O)c1c([O-])n(-c2ccc(OC)cc2)c(=O)[nH]c1=O.C[NH+](C)C` stands 44.5 µg/mL; under `COc1ccc(NC(=O)c2cc(=O)c3ccccc3o2)cc1Cl`, under 0.7 µg/mL; under `N#Cc1cc([N+](=O)[O-])ccc1N1CCN(c2ccccc2O)CC1`, 2.4 µg/mL (≈ 7.4 µM). Consider `O=C(O)CC(CC(=O)N1CCN(C(=O)c2ccco2)CC1)c1ccccc1` (configuration not stated), for which the solubility (kinetic) is over 55.6 µg/mL.

`CCOC(=O)C1C(c2ccc(Cl)cc2)NC(=S)NC1(O)C(F)(F)F` (configuration not stated) yielded a kinetic solubility of 37.8 µg/mL (≈ 98.7 µM). Regarding `O=C(NCCCNC(=O)c1ccc(Cl)cc1Cl)c1ccccn1`, the solubility (kinetic) came to 51.8 µg/mL (≈ 147 µM). Under `S=C(Nc1ccccc1Cl)N1CCN(c2ccccn2)CC1` stands 2.3 µg/mL (≈ 6.91 µM); under `Cc1nc(C)n(CC(=O)c2ccc(Cl)cc2Cl)n1`, over 42.6 µg/mL. Next, `CC(=O)NC(c1ccc(Cl)cc1Cl)c1ccc2cccnc2c1O` (configuration not stated): 3 µg/mL (≈ 8.31 µM). Next, `CC1CCc2sc(C(=O)NCCCn3ccnc3)cc2C1` (configuration not stated): 35 µg/mL (≈ 115 µM). Compound `O=C(COC(=O)CN1C(=O)C2CCCCC2C1=O)Nc1ccc(F)c(F)c1F` (configuration not stated) had a kinetic solubility of over 59.8 µg/mL. Under `COc1ccc(NS(=O)(=O)c2csc(C(N)=O)c2)cc1` stands over 46.9 µg/mL; under `CSc1ncccc1C(=O)OCC(=O)Nc1nc(C)c(Cl)cc1Cl`, 10 µg/mL (≈ 25.9 µM). `COc1ccc(CN(C(C)=O)c2ccccc2C(=O)O)cc1` yielded a kinetic solubility of 43.7 µg/mL (≈ 146 µM). Turning to `COc1ccccc1NC(=O)c1ccccc1Oc1ccccc1`, the kinetic solubility is under 0.7 µg/mL. Next, `Cn1c(=O)c2[nH]c(-c3ccc(S(=O)(=O)O)cc3)nc2n(C)c1=O.O`: over 53.2 µg/mL; `Cc1cccc(OCC(=O)Nc2ccc(NC(=O)c3ccco3)c(C)c2)c1`: 4.4 µg/mL (≈ 12.1 µM); `O=C(Nc1ccccc1F)c1cc(Cl)sc1Cl`: 5.2 µg/mL (≈ 17.9 µM). `CCOc1ccc(C(=S)N2CCCC2)c(OCC)c1` gave a solubility (kinetic) of over 41.9 µg/mL.

Compound `Cc1nc2ccc(NC(=O)c3cccs3)cc2s1` had a solubility (kinetic) of 8.4 µg/mL (≈ 30.6 µM). Under `CCCCCCCCCCCC(=O)N1CC(=O)NC(=O)C1` stands 2.5 µg/mL (≈ 8.43 µM). Under `COc1ccccc1NC(=O)c1c[nH]c2ccccc12` stands over 39.9 µg/mL; under `Cc1nccn1-c1c([N+](=O)[O-])c(=O)n(C)c2ccccc12`, over 42.6 µg/mL. Take `O=S(=O)(c1ccccc1)N1CCN(CCO)CC1`: the solubility (kinetic) was over 40.6 µg/mL. Next, `CC(=NCc1ccco1)c1c(O)n(-c2ccc(C)cc2)c(=O)[nH]c1=O`: 12.5 µg/mL (≈ 36.8 µM); `Cc1ccc(NC(=O)Nc2cccc(C)n2)c(C)c1`: under 0.2 µg/mL. `O=C(/C=C/c1ccccc1[N+](=O)[O-])OC1CCCCC1=O` (configuration not stated): the kinetic solubility was 4.5 µg/mL (≈ 15.6 µM). Next, `Cc1ccccc1NC(=O)N1CCC(C(=O)c2ccc(F)cc2)CC1`: 33.4 µg/mL (≈ 98.1 µM); `O=C(Nc1ccc(Br)cc1)Nc1cnccn1`: 3 µg/mL (≈ 10.2 µM). Next, `Cc1nnc(NC(=O)C2CCN(S(=O)(=O)c3ccc(F)c(F)c3)CC2)o1`: over 58 µg/mL. Next, `CC(C)OC(=O)/C(C#N)=C\c1cccnc1`: 28.2 µg/mL (≈ 130 µM); `O=C(c1ccc(F)cc1)c1ccc(OCC(=O)N2CCOCC2)cc1`: over 51.5 µg/mL. Regarding `S=C(NCC1CCCO1)NC1CC1` (configuration not stated), the solubility (kinetic) was over 30 µg/mL. Next, `O=C(/C=C/c1c(F)cccc1Cl)NCCCN1CCOCC1`: over 49 µg/mL; `CC(C)OCCCNC1=C(Cl)C(=O)c2ccccc2C1=O`: 35.5 µg/mL (≈ 115 µM); `CCCCCC(=O)O/N=C(\C)c1ccn(S(=O)(=O)c2ccccc2)c1`: 1.3 µg/mL (≈ 3.59 µM). Next, `O=C(OCc1cccc([N+](=O)[O-])c1)c1ccc[nH]c1=O`: over 41.1 µg/mL; `CN1CCN(C(=O)c2cc3ccccc3[nH]2)CC1`: over 36.5 µg/mL.

On to `CC(=O)N(C)c1ccc(NC(=O)Nc2ccc(Cl)cc2)cc1`, for which the solubility (kinetic) stood at 45.2 µg/mL (≈ 142 µM). Under `COC(=O)c1ccc(C2SCC(=O)N2Cc2ccccc2)cc1` (configuration not stated) stands 37.3 µg/mL (≈ 114 µM); under `CCOc1ccc(-n2c(C)c(C(=O)OC)c3cc(O)ccc32)cc1`, under 0.7 µg/mL; under `O=C(CCC1CCCC1)NCCCNC(=O)CCC1CCCC1`, 36.2 µg/mL (≈ 112 µM). In the case of `O=S(=O)(c1ccccc1)N1CCNCC1`, the kinetic solubility came out at 26.6 µg/mL (≈ 118 µM). As for `O=C(NC1CC1)C1CCN(C(=O)c2ccccc2Cl)CC1`, the kinetic solubility is over 46 µg/mL. The compound `NS(=O)(=O)c1ccc(CCNC(=O)Cc2ccc(Cl)cc2)cc1` came in with a kinetic solubility of over 52.9 µg/mL. Next, `O=C(Nc1cc(S(=O)(=O)N2CCOCC2)ccc1O)c1ccc(S(=O)(=O)N2CCCCC2)cc1`: 4.8 µg/mL (≈ 9.42 µM).

In turn, `Cc1nc2ccc(C(=O)N3CCN(Cc4ccccc4)CC3)cc2[nH]1` yielded a kinetic solubility of 49.7 µg/mL (≈ 149 µM). Under `CC(=O)c1ccc(S(=O)(=O)NCCC(=O)NC2CCN(Cc3ccccc3)CC2)cc1.O=C(O)C(=O)O` stands over 80 µg/mL.

Compound `COC(=O)c1cnc(Nc2ccc(Cl)cc2)c([N+](=O)[O-])c1` yielded a solubility (kinetic) of under 0.2 µg/mL. Next, `COc1ccc(NC(=O)Cc2c(Cl)cccc2Cl)cn1`: 6.2 µg/mL (≈ 19.9 µM). Next, `COc1ccc2[nH]cc(/C=C/C(=O)c3ccccc3)c2c1`: 2.9 µg/mL (≈ 10.5 µM); `Cc1cccc(C)c1NC(=O)c1ccc(OCc2c(C)noc2C)cc1`: 8.7 µg/mL (≈ 24.8 µM). For `O=C(Nc1ccccc1C(=O)NCCCN1CCOCC1)c1ccc(F)cc1F`, the kinetic solubility was 59.6 µg/mL (≈ 148 µM).

On to `CCOC(=O)c1cccc(NC(=O)c2cc3ccccc3o2)c1`, for which the solubility (kinetic) came out at 0.7 µg/mL (≈ 2.26 µM). Under `CCOC(=O)c1c(/N=C/c2ccc(OC)cc2O)sc2c1CCN(C)C2` stands 37 µg/mL (≈ 98.8 µM). Under `N#Cc1ccccc1NC(=O)CN1C(=O)NC2(CCCC2)C1=O` stands over 46.8 µg/mL; under `O=C(Nc1ccc(C2SCCS2)cc1)c1ccccc1`, 1.4 µg/mL (≈ 4.64 µM); under `Cn1cccc1C(=O)OCC(=O)Nc1ccc2[nH]c(=O)[nH]c2c1`, 11.1 µg/mL (≈ 35.3 µM). Under `CCCS(=O)(=O)N1CCCC(C(=O)NCC(OC)OC)C1` (configuration not stated) stands 45.2 µg/mL (≈ 140 µM). In the case of `N/C(=N\OC(=O)c1ccc(Cl)c([N+](=O)[O-])c1)c1ccccn1`, the solubility (kinetic) was 2.7 µg/mL (≈ 8.42 µM).

On to `O=C(/C=C/c1ccco1)N(Cc1ccc(Cl)cc1)C1CCS(=O)(=O)C1` (configuration not stated), for which the kinetic solubility came out at 46.2 µg/mL (≈ 122 µM). Next, `CN(CC1COc2ccccc2O1)C(=O)c1ccc(N(C)C)cc1` (configuration not stated): over 49 µg/mL.

The values are drawn from PubChem BioAssay AID1996.
